Twelve compounds from article PMC7531004, “Discovery of gramicidin A analogues with altered activities by multidimensional screening of a one-bead-one-compound library” (Nature Communications, 2020) can be followed below.

Where a SMILES comes first, the peptide text is derived from it. [ ]: non-standard residue; d: D form. The star is where a group is joined. NHCH2CH2OH = OCCN*; For = O=C*

Data set [1] is described as follows: H+/Na+ transport assay of bead-derived peptides (one-point).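 Note: relative to parent gramicidin A activity set to 1.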 The note with it: bead-derived peptide solution, EYPC/EYPG LUVs. More on the design: key: relative activity; mean of two control wells = 1.00. It counts as biochemical. The method, boiled down:
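Pyranine (1.0 mM)-loaded LUVs containing egg yolk phosphatidylglycerol were prepared by film hydration, sonication and extrusion, then mixed with diluted bead-derived peptide in 96-well format and vortexed 30 min at room temperature. Fluorescence was normalized between untreated LUVs (0%) and Triton X-100 lysis (100%).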

Data set [2] concerns P388 mouse leukemia cells. The conditions noted are these: 92 h. The method, boiled down: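 P388 cells at 1 × 10^4 cells/mL (final) were exposed to library peptides (stocks diluted 250-fold in RPMI1640/10% FBS) for 92 h at 37 °C, 5% CO2. Viable cells were counted by WST-1/1-methoxy PMS (4 h), absorbance 415 nm, and expressed as cell viability (%).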
In data set [3] the test system is Streptococcus pyogenes SSI-9. The data set can be described thus: Antibacterial activity assay of bead-derived peptides (three concentrations). It counts as cell-based. More on the design: key: +++: inhibition by the 640-fold diluted peptide solution; ++: inhibition by the 160-fold diluted solution; +: inhibition by the 40-fold diluted solution; -: no inhibition. The conditions noted are these: S. pyogenes, bead-derived peptide solution, three concentrations. In short, it runs like this: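 Library peptide stock applied undiluted, 4-fold and 16-fold diluted in DMSO to S. pyogenes SSI-9 (2 × 10^5 CFU) in cation-adjusted Mueller Hinton broth with 5% laked horse blood. After 18 h at 37 °C, growth judged by visible cell precipitation.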

`CC(C)C[C@@H](NC(=O)[C@H](C)NC(=O)CNC(=O)[C@@H](NC=O)C(C)C)C(=O)N[C@@H](C)C(=O)N[C@H](CC(C)C)C(=O)N[C@H](C(=O)N[C@@H](C(=O)N[C@@H](Cc1c[nH]c2ccccc12)C(=O)N[C@H](CC(C)C)C(=O)N[C@@H](Cc1c[nH]c2ccccc12)C(=O)N[C@@H](C(=O)N[C@@H](Cc1c[nH]c2ccccc12)C(=O)N[C@@H](C(=O)N[C@@H](Cc1c[nH]c2ccccc12)C(=O)NCCO)C(C)C)C(C)C)C(C)C)C(C)C` [compound 9607] (For-VGA[dL]A[dL]V[dV]W[dL]W[dV]W[dV]W-NHCH2CH2OH): the “H+/Na+ transport activity normalized against the value of 1 (1.00)” value (shortened to “H+/Na+ transport activity normalized”) in data set [1] is given as 1.03. In data set [2], this compound returned a cell viability/% of 48.6%. Moreover, the antibacterial activity result in data set [3] is on record as “+”.
With `CNC(=O)C[C@@H](NC(=O)[C@H](Cc1c[nH]c2ccccc12)NC(=O)[C@@H](CC(C)C)NC(=O)[C@H](Cc1c[nH]c2ccccc12)NC(=O)[C@H](NC(=O)[C@H](Cc1c[nH]c2ccccc12)NC(=O)[C@H](NC(=O)[C@@H](NC(=O)[C@@H](CC(C)C)NC(=O)[C@H](C)NC(=O)[C@@H](CC(C)C)NC(=O)[C@H](C)NC(=O)CNC(=O)[C@@H](NC=O)C(C)C)C(C)C)C(C)C)C(C)C)C(=O)N[C@@H](Cc1c[nH]c2ccccc12)C(=O)NCCO` [compound 9609] (For-VGA[dL]A[dL]V[dV]W[dV]W[dL]W[dD](NHMe)W-NHCH2CH2OH), the “H+/Na+ transport activity normalized” value in data set [1] worked out at 1.15. Moreover, the cell viability/% in data set [2] was found to be 100.0%. In addition, the antibacterial activity result in data set [3] is listed as “-”.
As for `CC(C)C[C@@H](NC(=O)[C@H](C)NC(=O)CNC(=O)[C@@H](NC=O)C(C)C)C(=O)N[C@@H](C)C(=O)N[C@@H](C(=O)N[C@H](C(=O)N[C@@H](C(=O)N[C@@H](Cc1c[nH]c2ccccc12)C(=O)N[C@@H](C(=O)N[C@@H](Cc1c[nH]c2ccccc12)C(=O)N[C@@H](C(=O)N[C@@H](Cc1c[nH]c2ccccc12)C(=O)N[C@@H](C(=O)N[C@@H](Cc1c[nH]c2ccccc12)C(=O)NCCO)C(C)C)C(C)C)C(C)C)C(C)C)C(C)C)C(C)C` [compound 9610] (For-VGA[dL]A[dV]V[dV]W[dV]W[dV]W[dV]W-NHCH2CH2OH), the “H+/Na+ transport activity normalized” value in data set [1] is listed as 1.14. In data set [2], this compound showed a cell viability/% of 100.0%. In data set [3], the antibacterial activity entry is given as “+”.
For `CC(C)C[C@@H](NC(=O)[C@H](C)NC(=O)CNC(=O)[C@@H](NC=O)C(C)C)C(=O)N[C@@H](C)C(=O)N[C@@H](C(=O)N[C@H](C(=O)N[C@H](CC(C)C)C(=O)N[C@@H](Cc1c[nH]c2ccccc12)C(=O)N[C@H](CC(C)C)C(=O)N[C@@H](Cc1c[nH]c2ccccc12)C(=O)N[C@H](CC(C)C)C(=O)N[C@@H](Cc1c[nH]c2ccccc12)C(=O)N[C@H](CC(C)C)C(=O)N[C@@H](Cc1c[nH]c2ccccc12)C(=O)NCCO)C(C)C)C(C)C` [compound 9628] (For-VGA[dL]A[dV]V[dL]W[dL]W[dL]W[dL]W-NHCH2CH2OH), in that order: 1.16, 0.0% and “+”.
For `CC(C)C[C@@H](NC(=O)[C@H](C)NC(=O)[C@H](NC(=O)[C@H](C)NC(=O)CNC(=O)[C@@H](NC=O)C(C)C)C(C)C)C(=O)N[C@H](C(=O)N[C@@H](C(=O)N[C@@H](Cc1c[nH]c2ccccc12)C(=O)N[C@@H](C(=O)N[C@@H](Cc1c[nH]c2ccccc12)C(=O)N[C@H](CC(C)C)C(=O)N[C@@H](Cc1c[nH]c2ccccc12)C(=O)N[C@@H](C(=O)N[C@@H](Cc1c[nH]c2ccccc12)C(=O)NCCO)C(C)C)C(C)C)[C@H](C)O)C(C)C` [compound 9633] (For-VGA[dV]A[dL]V[dT]W[dV]W[dL]W[dV]W-NHCH2CH2OH), the “H+/Na+ transport activity normalized” value in data set [1] came to 1.06. In data set [2], this compound returned a cell viability/% of 100.0%. Besides, the antibacterial activity entry in data set [3] is on record as “-”.
For the compound `CC(C)C[C@@H](NC(=O)[C@H](C)NC(=O)CNC(=O)[C@@H](NC=O)C(C)C)C(=O)N[C@@H](C)C(=O)N[C@@H](C(=O)N[C@H](C(=O)N[C@H](CC(C)C)C(=O)N[C@@H](Cc1c[nH]c2ccccc12)C(=O)N[C@H](CC(C)C)C(=O)N[C@@H](Cc1c[nH]c2ccccc12)C(=O)N[C@@H](C(=O)N[C@@H](Cc1c[nH]c2ccccc12)C(=O)N[C@H](CC(C)C)C(=O)N[C@@H](Cc1c[nH]c2ccccc12)C(=O)NCCO)C(C)C)C(C)C)[C@H](C)O` [compound 9676] (For-VGA[dL]A[dT]V[dL]W[dL]W[dV]W[dL]W-NHCH2CH2OH), the “H+/Na+ transport activity normalized” value in data set [1] was found to be 1.05. The same compound displayed a cell viability/% in data set [2] of 100.0%. Besides, in data set [3], the antibacterial activity result was “-”.
As to `CNC(=O)C[C@@H](NC(=O)[C@H](Cc1c[nH]c2ccccc12)NC(=O)[C@H](NC(=O)[C@H](Cc1c[nH]c2ccccc12)NC(=O)[C@@H](CC(C)C)NC(=O)[C@H](Cc1c[nH]c2ccccc12)NC(=O)[C@H](NC(=O)[C@@H](NC(=O)[C@@H](CC(C)C)NC(=O)[C@H](C)NC(=O)[C@H](NC(=O)[C@H](C)NC(=O)CNC(=O)[C@@H](NC=O)C(C)C)C(C)C)C(C)C)C(C)C)C(C)C)C(=O)N[C@@H](Cc1c[nH]c2ccccc12)C(=O)NCCO` [compound 9727] (For-VGA[dV]A[dL]V[dV]W[dL]W[dV]W[dD](NHMe)W-NHCH2CH2OH), the “H+/Na+ transport activity normalized” value in data set [1] is 1.10. In data set [2], this compound returned a cell viability/% of 100.0%. For the same compound, in data set [3], the antibacterial activity entry is given as “-”.
Regarding `CC(C)C[C@@H](NC(=O)[C@H](C)NC(=O)CNC(=O)[C@@H](NC=O)C(C)C)C(=O)N[C@@H](C)C(=O)N[C@H](CC(C)C)C(=O)N[C@H](C(=O)N[C@@H](C(=O)N[C@@H](Cc1c[nH]c2ccccc12)C(=O)N[C@@H](C(=O)N[C@@H](Cc1c[nH]c2ccccc12)C(=O)N[C@@H](C(=O)N[C@@H](Cc1c[nH]c2ccccc12)C(=O)N[C@@H](C(=O)N[C@@H](Cc1c[nH]c2ccccc12)C(=O)NCCO)[C@H](C)O)C(C)C)C(C)C)C(C)C)C(C)C` [compound 9735] (For-VGA[dL]A[dL]V[dV]W[dV]W[dV]W[dT]W-NHCH2CH2OH), the “H+/Na+ transport activity normalized” value in data set [1] is reported as 1.18. The compound also returned a cell viability/% in data set [2] of 100.0%. In addition, the antibacterial activity entry in data set [3] is recorded as “-”.
For `CC(C)C[C@@H](NC(=O)[C@H](C)NC(=O)[C@H](NC(=O)[C@H](C)NC(=O)CNC(=O)[C@@H](NC=O)C(C)C)C(C)C)C(=O)N[C@H](C(=O)N[C@@H](C(=O)N[C@@H](Cc1c[nH]c2ccccc12)C(=O)N[C@@H](C(=O)N[C@@H](Cc1c[nH]c2ccccc12)C(=O)N[C@@H](C(=O)N[C@@H](Cc1c[nH]c2ccccc12)C(=O)N[C@H](CC(C)C)C(=O)N[C@@H](Cc1c[nH]c2ccccc12)C(=O)NCCO)C(C)C)C(C)C)[C@H](C)O)C(C)C` [compound 9738] (For-VGA[dV]A[dL]V[dT]W[dV]W[dV]W[dL]W-NHCH2CH2OH), in that order: 1.21, 100.0% and “-”.
For the compound `CC(C)C[C@@H](NC(=O)[C@H](C)NC(=O)[C@H](NC(=O)[C@H](C)NC(=O)CNC(=O)[C@@H](NC=O)C(C)C)C(C)C)C(=O)N[C@H](C(=O)N[C@H](CC(C)C)C(=O)N[C@@H](Cc1c[nH]c2ccccc12)C(=O)N[C@@H](C(=O)N[C@@H](Cc1c[nH]c2ccccc12)C(=O)N[C@H](CC(C)C)C(=O)N[C@@H](Cc1c[nH]c2ccccc12)C(=O)N[C@@H](C(=O)N[C@@H](Cc1c[nH]c2ccccc12)C(=O)NCCO)C(C)C)C(C)C)C(C)C` [compound 9742] (For-VGA[dV]A[dL]V[dL]W[dV]W[dL]W[dV]W-NHCH2CH2OH), the “H+/Na+ transport activity normalized” value in data set [1] is on record as 1.21. Also, in data set [2], the cell viability/% worked out at 0.0%. Besides, in data set [3], the antibacterial activity result is reported as “+”.
On to `CC(C)C[C@@H](NC(=O)[C@@H](NC(=O)[C@H](NC(=O)[C@H](C)NC(=O)[C@H](NC(=O)[C@H](C)NC(=O)CNC(=O)[C@@H](NC=O)C(C)C)[C@H](C)O)C(C)C)C(C)C)C(=O)N[C@@H](Cc1c[nH]c2ccccc12)C(=O)N[C@@H](C(=O)N[C@@H](Cc1c[nH]c2ccccc12)C(=O)N[C@@H](C(=O)N[C@@H](Cc1c[nH]c2ccccc12)C(=O)N[C@@H](C(=O)N[C@@H](Cc1c[nH]c2ccccc12)C(=O)NCCO)C(C)C)C(C)C)C(C)C` [compound 9799] (For-VGA[dT]A[dV]V[dL]W[dV]W[dV]W[dV]W-NHCH2CH2OH), for which the “H+/Na+ transport activity normalized” value in data set [1] was 1.26. Also, the cell viability/% in data set [2] turned out to be 100.0%. In addition, the antibacterial activity entry in data set [3] is given as “-”.
On to `CC(C)C[C@@H](NC(=O)[C@H](C)NC(=O)CNC(=O)[C@@H](NC=O)C(C)C)C(=O)N[C@@H](C)C(=O)N[C@@H](C(=O)N[C@H](C(=O)N[C@@H](C(=O)N[C@@H](Cc1c[nH]c2ccccc12)C(=O)N[C@@H](C(=O)N[C@@H](Cc1c[nH]c2ccccc12)C(=O)N[C@H](CC(C)C)C(=O)N[C@@H](Cc1c[nH]c2ccccc12)C(=O)N[C@H](CC(C)C)C(=O)N[C@@H](Cc1c[nH]c2ccccc12)C(=O)NCCO)C(C)C)[C@H](C)O)C(C)C)C(C)C` [compound 9832] (For-VGA[dL]A[dV]V[dT]W[dV]W[dL]W[dL]W-NHCH2CH2OH), for which, in data set [1], the “H+/Na+ transport activity normalized” value was 1.26. The compound further gave a cell viability/% in data set [2] of 100.0%. For the same compound, in data set [3], the antibacterial activity result is “-”.
